{
  "source": "patent US11932898B2",
  "about": "“Precision therapeutic biomarker screening for cancer” (UNIVERSITY OF MIAMI, priority 2016, dated 2024)",
  "key": {"human tumor cell lines": {"system": "human tumor cell lines", "assay": "component-wise IC50 values of the SANGER drug sensitivity dataset, clustered by generalized FMMR cell line components", "format": "cell-based", "conditions": "for magnitude of IC50s for overlapping component 12: component-wise IC50 boxplots, FIG. 11A-11E, cell line components 1, 2 and 12", "from_the_text": "Cancer cell lines have frequently been used as a convenient way of conducting such studies. For a systematic search of therapeutic biomarkers to a variety of cancer drugs, Garnett et al. (2012) screened 639 human tumor cell lines which represent much of the tissue-type and genetic diversity of human cancers with 130 drugs. These drugs, including approved drugs, drugs in development as well as experimental tool compounds, cover a wide range of targets and processes involved in cancer biology. In the Garnett et al. work, a range of 275-507 cell lines were screened for each drug. The effect of a 72 h drug treatment on cell viability was used to derive measures of drug sensitivity, including the half-maximal inhibitory concentration (IC50). In addition, the cell lines underwent sequencing of 64 known cancer genes, genome-wide analysis of copy number gains and losses, and expression profiling of 14,500 genes.\nWe applied the innovative techniques herein to analyzing the SANGER high throughput drug sensitivity dataset for cancer. […] The responses, made up with IC50 values from pairwise drug-cell-line screening, has some missing values. Therefore the data was first filtered by removing cell lines for which less than 50% of the drugs were tested, resulting in 591 cell lines remaining. In the remaining data, about 37.4% of the cell lines are with missing values. These missing values are imputed via the random forest imputation algorithm (Ishwaran, Kogalur, Blackstone and Lauer 2008; Stekhoven and Buhlmann 2012).\nIn order to identify patterns of cancer-specific therapeutic biomarkers, we employed method gEMseplasso in the analysis. […]\nIn the second step, the process uses an affinity-propagation clustering (APC) algorithm (Frey and Dueck 2007) to group the 140 drugs based on results from the first step. […] The pair-wise similarity matrix required by the algorithm as input data is calculated from the Euclidean distance between Za and Zb. […] The pair-wise similarity matrix is calculated from the Euclidean distance between Bk^a and Bk^b for k=1, . . . , 3. […]"}, "soft tissue cancer": {"system": "soft tissue cancer", "conditions": "soft tissue cancer resistant to standard chemotherapy (doxyrubicin); small sample size phase II study; cited from earlier work"}, "[1]": {"system": "chronic myeloid leukemia (CML)", "conditions": "cited from earlier work"}},
  "data": [
    {"smiles": "COc1cc2ncn(-c3cc(OCc4ccccc4C(F)(F)F)c(C(N)=O)s3)c2cc1OC", "note": "[GW843682X]", "values": [
      {"measurement": "component with highest IC50s", "setting": "human tumor cell lines; among cell line components 1, 2, and 12", "result": "component 2"},
      {"measurement": "magnitude of IC50s for overlapping component 12", "setting": "human tumor cell lines", "result": "between those for component 1 and 2"}
    ]},
    {"smiles": "Nc1ccn([C@@H]2O[C@H](CO)[C@@H](O)C2(F)F)c(=O)n1", "note": "[Gemcitabine]", "values": [
      {"measurement": "effectiveness in soft tissue cancer", "setting": "soft tissue cancer", "result": "effective"}
    ]},
    {"smiles": "Nc1ccccc1NC(=O)c1ccc(CNC(=O)OCc2cccnc2)cc1", "note": "[MS.275]", "values": [
      {"measurement": "magnitude of IC50s for overlapping component 12", "setting": "human tumor cell lines", "result": "between those for component 1 and 2"}
    ]},
    {"smiles": "Cc1ccc(NC(=O)c2ccc(CN3CCN(C)CC3)cc2)cc1Nc1nccc(-c2cccnc2)n1", "note": "[imatinib]", "values": [
      {"measurement": "blood counts", "setting": "[1]; CML patients who had exhausted standard treatment options, tested in 1998", "result": "returning to normal"},
      {"measurement": "five-year survival rate", "setting": "[1]; CML patients", "result": 95, "unit": "%"}
    ]}
  ]
}
